In patent publication US5821244A, “Condensed nitrogen heterocycles and their use as pesticides, fungicides and antimycotics” (Hoechst Schering AgrEvo GmbH, priority 1993, dated 1998) one finds mortality, disease suppression and inhibition data, which are given here for 24 compounds.

SMILES strings stand for the structures.

Assay [1] deals with eggs of the large milkweed bug (Oncopeltus fasciatus). The experiment in a line: Ovicidal activity, eggs of large milkweed bug on paper filter disks. In kind it is in vivo. To be noted: 168 h, after 7 days. As for the experimental part: Paper filter disks onto which eggs of the large milkweed bug (Oncopeltus fasciatus) have been placed are treated with in each case 0.5 ml of aqueous dilution of the test formulation. After the coating has dried on, the Petri dish is sealed, and the inside is kept at maximum atmospheric humidity. After the dishes have been kept at room temperature, the ovicidal activity was determined after 7 days.

The test system of assay [2] is Plasmopara viticola. The experiment in a line: Fungicide test, Plasmopara viticola on grapevine seedlings. In kind it is in vivo. Particulars: 500 mg of active substance/l spray mixture; incubation 7 days. As for the experimental part: Approximately 6 weeks after sowing, grapevine seedlings "Riesling/Ehrenfelder" were treated to runoff point using aqueous suspensions of the compounds according to the invention. After the spray coating had dried on, the plants were inoculated with a zoosporangia suspension of Plasmopara viticola and the dripping wet plants were placed for 4 to 5 hours into a controlled-environment cabinet at 23° C. at a relative atmospheric humidity of 80-90%.
After an incubation time of 7 days in the greenhouse, the plants were returned overnight into the controlled-environment cabinet to stimulate sporulation of the fungus. The disease was then evaluated. The disease level was expressed in % of diseased leaf area in comparison with the untreated, 100% infected control plants.

In assay [3] the test system is Leptosphaeria nodorum. The experiment in a line: Fungicide test, Leptosphaeria nodorum on wheat plants. In kind it is in vivo. To be noted: 500 mg of active substance/l spray mixture. As for the experimental part: Wheat plants cv. "Jubilar" in the 2-leaf stage were wetted to runoff point using aqueous suspensions of the preparations according to the invention. […] The plants were grown on in the greenhouse at a relative atmospheric humidity of approximately 90% until the symptoms became visible. The disease level was determined in % of diseased leaf area in comparison with the untreated, 100% infected control plants.

Assay [4] has as its system whitefly (Trialeurodes vaporariorum). The experiment in a line: Insecticide test, whitefly on bean plants. In kind it is in vivo. Particulars: 336 h, after 14 days. The source says:
Bean plants which were heavily populated with whitefly (Trialeurodes vaporariorum) were sprayed to the beginning of the run-off point using aqueous suspensions of concentrates of wettable powders (250 ppm active substance content). After the plants had been placed in the greenhouse, they were subjected to microscope checks after 14 days, resulting in a 100% mortality in the case of each preparation containing the active substances of Example Nos. 4, 5, 10, 19, 20, 24, 27, 28, 130 and 139.

In assay [5] the test system is eggs of Diabrotica undecimpunctata. The assay is described as follows: Activity against freshly deposited eggs of southern corn rootworm. In kind it is in vivo. Particulars: 120 h, after 5 days. The procedure: Freshly deposited eggs of Diabrotica undecimpunctata (southern corn rootworm) were sprayed, on paper filters, with in each case 2 ml of an aqueous suspension of wettable powders (active substance content 250 ppm) and were subsequently observed at room temperature. After 5 days, the eggs were examined for mortality.

Assay [6] has as its system two-spotted spider mite (Tetranychus urticae). The experiment in a line: Acaricide test, two-spotted spider mite on bean plants. Type of assay: in vivo. Particulars: 168 h, after 7 days, read-out: mortality rate of the mites. The source says:
Bean plants (Phaseolus v.) which were heavily infested with the two-spotted spider mite (Tetranychus urticae, full population) were sprayed with the aqueous dilution of a concentrate of wettable powder, containing 250 ppm of the active substance in question. The mortality of the mites was checked after 7 days.

The test system of assay [7] is Botrytis cinerea. The experiment in a line: Fungicide test, Botrytis cinerea on broad beans. In kind it is in vivo. To be noted: 500 mg of active substance/l spray mixture; approximately 1 week after inoculation. The procedure:
Broad beans cv. "Herz Freya" or "[…]" approximately 14 days old, were treated to runoff point with aqueous suspensions of the compounds according to the invention. After the spray coating had dried off, the plants were inoculated with a spore suspension (1.5 million spores/ml) of Botrytis cinerea. The plants were grown on in a controlled-environment cabinet at 20°-22° C. under relative atmospheric humidity of approximately 99%. […] The experiments were evaluated approximately 1 week after inoculation. The disease level of the plants was scored in percent relative to untreated, 100% infected control plants.

Assay [8] concerns tropical cattle ticks (Boophilus microplus). The experiment in a line: In vitro test on tropical cattle ticks, inhibition of oviposition. Type of assay: in vivo. Particulars: Rhipicephalus microplus, 336 h, immersion five minutes, two weeks after treatment. The procedure:
In vitro test on tropical cattle ticks (Boophilus microplus) The following experimental set-up allowed the effectiveness of the compounds according to the invention against ticks to be confirmed.
To produce a suitable preparation of active substance, the active substances were dissolved to 10% strength (w/v) in a mixture composed of dimethylformamide (85 g), nonylphenolpolyglycol ether (3 g) and ethoxylated castor oil (7 g), and the resulting emulsion concentrates were diluted with water to a test concentration of 500 ppm.
Batches of ten females of the tropical tick Boophilus microplus which had sucked themselves full were immersed for five minutes in these active substance dilutions. The ticks were subsequently dried on paper filters and then attached, with their backs, to an adhesive film-in order to deposit eggs. The ticks were kept in an incubator at 28° C. at an atmospheric humidity of 90%.
As a control, the female ticks were immersed just in water. Two weeks after the treatment, the inhibition of oviposition was used to determine the effectiveness. 100% means that no ticks have deposited eggs, 0 that all ticks have deposited eggs.

For assay [9], the system named is tobacco hornworm (Manduca sexta). The experiment in a line: Oral application to larvae (L4) of tobacco hornworm. In kind it is in vivo. The procedure:
Active substances which were dissolved in acetone were applied orally to butterfly larvae (L4) of tobacco hornworm (Manduca sexta). After active substance of Example No. 3 or 8 (2×10^-4 g of a.i./animal) had been applied, a mortality of 100% was found after 48 hours.

Assay [10] concerns Spodoptera littoralis. The assay is described as follows: Insecticide test, Egyptian cotton leafworm larvae (L3). Type of assay: in vivo. Particulars: 120 h, after 5 days. As for the experimental part:
Spodoptera littoralis (Egyptian cotton leafworm) larvae in the L3 stage were introduced into Petri dishes filled with nutrient medium, and these dishes together with the larvae were sprayed with 2 ml of an aqueous suspension of wettable powder containing 250 ppm (Corresponding to 6000 l of water/ha). After the spray coating had dried on, the Petri dishes were sealed and stored for 5 days at 21° C. After 5 days, the compound of Example No. 28 had caused a mortality of the Spodoptera larvae of 100%.

In assay [11] the test system is Phytophthora infestans. Type of assay: in vivo. Particulars: 500 mg of active substance/l spray mixture; approximately 1 week after inoculation.
Assay [12] relates to Erysiphe graminis. The assay is described as follows: Fungicide test, Erysiphe graminis (powdery mildew) on barley plants. In kind it is in vivo, Erysiphe graminis f. sp. hordei. Particulars: 500 mg of active substance/l spray mixture; applied 24 hours after inoculation; 10 days. As for the experimental part:
Barley plants in the 3-leaf stage were inoculated with large amounts of conidia of powdery mildew of barley (Erysiphe graminis f. sp. hordei) and placed in a greenhouse at 20° C. and a relative atmospheric humidity of 90 to 95%. 24 hours after the inoculation, the plants were wetted uniformly with the abovementioned compounds. After an incubation time of 10 days, the plants were examined for the occurrence of powdery mildew of barley. The disease level was determined in % of diseased leaf area based on untreated, 100% infected control plants.

The test system of assay [13] is Pyrenophora teres. The assay is described as follows: Fungicide test, Pyrenophora teres on barley plants. Particulars: 500 mg of active substance/l spray mixture; approximately 1 week after inoculation. Type of assay: in vivo. As for the experimental part: Barley plants cv. "Igri" in the 2-leaf stage were wetted to runoff point with an aqueous suspension of the compounds according to the invention. […] The infected plants were subsequently grown on in the greenhouse at 25° C. at a relative atmospheric humidity of 80%. The disease level was evaluated approximately 1 week after inoculation. The disease level was determined in % of diseased leaf area in comparison with untreated, 100% infected control plants.

In [1], `c1ccc([C@H]2CC[C@@H](Nc3ccnc4ncccc34)CC2)cc1` [Compound 208] gave a mortality at 250 ppm of 100%.

On to `CCC(C)(C)[C@H]1CC[C@@H](Nc2ccnc3cccnc23)CC1` [Compound 130], for which the disease suppression result in assay [2] and in [3] was “suppress disease completely” throughout. Further, the mortality at 250 ppm in assay [1], in assay [4], in assay [5] and in assay [6] was 100% throughout.

`c1ccc2c(NC3CCC(C4CCCCC4)CC3)ccnc2c1` (stereo not drawn) [Compound 23]: the disease suppression entry in assay [7] is on record as “suppress disease completely”. In addition, the mortality at 250 ppm in assay [1] and in assay [6] was 100% in each case.

`CCC(C)(C)[C@H]1CC[C@@H](Oc2ccnc3ccccc23)CC1` [Compound 14] had an inhibition at 500 ppm in assay [8] of 100%.

In the case of `c1ccc([C@H]2CC[C@@H](Oc3ccnc4ccccc34)CC2)cc1` [Compound 27], the mortality at 250 ppm in assay [1], in assay [4], in assay [5] and in assay [6] was 100% in each case. For the same compound, in assay [8], at 500 ppm the inhibition was 100%.

In turn, `CC(C)(C)[C@H]1CC[C@@H](Nc2ccnc3cc(C(F)(F)F)ccc23)CC1` [Compound 8] displayed a mortality at 0.2 mg in [9] (oral, 2×10^-4 g of a.i./animal, after 48 hours) of 100%.

Regarding `Fc1cccc2c(N[C@H]3CC[C@@H](c4ccccc4)CC3)ccnc12` [Compound 28], the mortality at 250 ppm in assay [4] and in [10] was 100% in each case. In [8], this compound displayed an inhibition at 500 ppm of 100%.

Take `CCOc1ccc([C@H]2CC[C@@H](Nc3ccnc4ccccc34)CC2)cc1` [Compound 45]: the disease suppression entry in [7] and in assay [11] was “suppress disease completely” in each case. Moreover, the mortality at 250 ppm in assay [1] turned out to be 100%.

For `CC(C)(C)C1CCC(Nc2ccnc3ccccc23)CC1` (stereo not drawn) [Compound 3], the disease suppression entry in assay [7] and in assay [2] was “suppress disease completely” throughout. The mortality at 250 ppm in [1] and in [5] was 100% each time. In assay [9] (po, 48 h), the mortality at 0.2 mg worked out at 100%.

In the case of `c1ccc([C@H]2CC[C@H](Nc3ccnc4ccccc34)CC2)cc1` [Compound 26, 4-(4-Phenylcyclohexylamino)quinoline], the disease suppression entry in [7] and in [2] was “suppress disease completely” each time.

`CC(C)(C)C1CCC(Oc2ccnc3ccccc23)CC1` (stereo not drawn) [Compound 4]: the mortality at 250 ppm in assay [4], in assay [5] and in assay [6] was 100% throughout.

Consider `CC(C)(C)CC(C)(C)[C@H]1CC[C@@H](Oc2ccnc3cccnc23)CC1` [Compound 133], for which the mortality at 250 ppm in assay [6] was determined as 100%.

On to `CC(C)(C)CC(C)(C)C1CCC(Nc2ccnc3ccccc23)CC1` (stereo not drawn) [Compound 19], for which the disease suppression result in assay [7] and in assay [2] was “suppress disease completely” in each case. Moreover, the mortality at 250 ppm in assay [1], in assay [4] and in [6] was 100% in each case.

As for `Cc1ccc2c(NC3CCC(C(C)(C)CC(C)(C)C)CC3)ccnc2n1` (stereo not drawn) [Compound 215], the mortality at 250 ppm in assay [1] worked out at 100%.

On to `CCC(C)(C)[C@H]1CC[C@@H](Nc2ncnc3cccnc23)CC1` [Compound 232], for which the disease suppression result in [2] is reported as “suppress disease completely”. Also, the mortality at 250 ppm in [5] is 100%.

`CC(C)(C)[C@H]1CC[C@@H](Nc2ccnc3c(F)cccc23)CC1` [Compound 5] had a mortality at 250 ppm in assay [4] of 100%.

With `c1ccc([C@H]2CC[C@@H](Nc3ccnc4ccccc34)CC2)cc1` [Compound 25, 4-(4-Phenylcyclohexylamino)quinoline], the disease suppression result in assay [7] and in assay [2] was “suppress disease completely” each time.

For `CCCC[C@H]1CC[C@@H](Oc2ccnc3ccccc23)CC1` [Compound 10], the mortality at 250 ppm in assay [1], in assay [4] and in [6] was 100% throughout.

Consider `Cc1cc(N[C@H]2CC[C@@H](C(C)(C)CC(C)(C)C)CC2)c2ccccc2n1` [Compound 80], for which the disease suppression result in [7] is “suppress disease completely”.

As to `CC(C)(C)CC(C)(C)[C@H]1CC[C@@H](Oc2ccnc3ccccc23)CC1` [Compound 20], the mortality at 250 ppm in assay [4] and in [6] was 100% in each case. Moreover, testing at 500 ppm in assay [8] gave an inhibition of 100%.

As to `c1ccc([C@H]2CC[C@@H](Oc3ccnc4cccnc34)CC2)cc1` [Compound 139], the disease suppression entry in assay [12] and in assay [13] was “suppress disease completely” throughout. Moreover, the mortality at 250 ppm in assay [1], in assay [4], in [5] and in [6] was 100% each time.

Consider `c1ccc2c(O[C@H]3CC[C@@H](C4CCCCC4)CC3)ccnc2c1` [Compound 24, 4-(4-Cyclohexylcyclohexyloxy)quinoline], for which the mortality at 250 ppm in assay [4] and in assay [6] was 100% throughout.

With `c1ccc([C@H]2CC[C@@H](Nc3ncnc4ncccc34)CC2)cc1` [Compound 280], in assay [1], the mortality at 250 ppm is 100%.

Turning to `CC(C)(C)[C@H]1CC[C@@H](Nc2ccnc3cc(Cl)ccc23)CC1` [Compound 7], the disease suppression entry in assay [7] and in assay [2] was “suppress disease completely” each time.

The term mortality denotes the percentage killed. A word on the inhibition: it is the relative decrease from the control value, in per cent.
